“Also recorded” adds a separate entry of the source. Where a name gives a salt, the structure may show the parent alone. Read-outs that look alike come from different tables or passages of the source.
Key:
[1] = tested on: optic nerve oligodendrocytes; assay: Oxygen and glucose deprivation (OGD) cell death in oligodendrocyte cultures (calcein-AM); assay type: cell-based, Sprague-Dawley rats; conditions: 1h OGD, calcein 24h later; PPADS 100 µM, BBG 50 nM, CNQX 30 µM, APV 100 µM, apyrase 20 U/ml, ARL67156 100 µM, CBX 20 µM, FFA 100 µM, MFQ 1 nM
Description: (§1) Primary cultures of oligodendrocytes derived from optic nerves of 12 day-old Sprague-Dawley rats were obtained as previously described (Matute et al., 1997 Proc Natl Acad Sci U S A 94:8830-8835.).Cells were maintained at 37°C and 5% CO2 in a chemically defined medium (Matute et al., 1997 Proc Natl Acad Sci U S A 94:8830-8835.). After 2-4 days in vitro, cultures were composed of at least 98% 04/Ga1C^+ cells. No microglial cells were detected in these cultures. […] Cell death was determined 24h later using calcein-AM (Invitrogen) as previously described (Matute et al., 1997 Proc Natl Acad Sci U S A 94:8830-8835.). Antagonists were present during in vitro ischaemia and during the next 24h incubation period. […] To assay the levels of reactive oxygen species (ROS), cells were loaded with 40 µM 2',7'- dichlorodihyfluoresceindiacetate (DCFDA; Invitrogen) and 1 µM calcein red-orange (Molecular Probes) immediately after OGD. Calcein was used to quantify the number of cells within the reading field. Fluorescence was measured as above and values were plotted as the percentage of DCFDA/calcein red-orange fluorescence versus control. The changes in mitochondrial membrane potential were monitored with 5,5',6,6'-tetrachloro-1,1',3,3'-tetraethylbenzimidazolcarbocyanine iodide (JC-1; Molecular Probes). Immediately after OGD, cells were loaded with JC-1 (3 µM) at 37°C for 30 min. The changes in the membrane potential were calculated as the red (emission at 590)/green (emission at 520) ratio in each condition and results were normalized to control.

[2] = tested on: cultured optic nerve oligodendrocytes; assay: ATP release measurement (luciferin/luciferase) in oligodendrocyte cultures after OGD; assay type: cell-based, Sprague-Dawley rats; conditions: 1h OGD in the presence of ARL67156; CBX 20 µM, FFA 100 µM, MFQ 1 nM (figure legend)
Description: as §1
(§2) ATP levels were measured using a Luciferin/Luciferase assay kit (Invitrogen) after 1h normoxia or OGD in oligodendrocyte cultures and in isolated optic nerves according to the manufacturer's instructions. The luminescence was measured with a luminometer Synergy-HT (BioTek) with an integration time of 3 sec. Because ATP was measured in the culture medium and in the solution bathing optic nerves, the concentration of ATP at the extracellular surface, near the vicinity of the receptor was underestimated (Joseph et al., 2003. J Biol Chem 278:23331-23342). The limit of ATP detection was 1 nM and luminescence was linear with increasing ATP concentrations to 1000 nM. The total amount of ATP was calculated according to standard curves and ATP release was expressed in percentage vs control.

[3] = molecular target: T1, P2X7 receptors in oligodendrocytes (Rattus norvegicus, UniProt Q64663); assay: ATP-evoked inward currents in whole-cell clamped oligodendrocytes; assay type: cell-based, Sprague-Dawley rats; conditions: -70 mV; CBX 20 µM, MFQ 1 nM
T1 construct: ATP (1 mM)-evoked inward currents in whole-cell clamped oligodendrocytes at -70 mV; endogenous in cells; host or cells: primary rat optic nerve oligodendrocytes
T1 sequence (Q64663 1-595): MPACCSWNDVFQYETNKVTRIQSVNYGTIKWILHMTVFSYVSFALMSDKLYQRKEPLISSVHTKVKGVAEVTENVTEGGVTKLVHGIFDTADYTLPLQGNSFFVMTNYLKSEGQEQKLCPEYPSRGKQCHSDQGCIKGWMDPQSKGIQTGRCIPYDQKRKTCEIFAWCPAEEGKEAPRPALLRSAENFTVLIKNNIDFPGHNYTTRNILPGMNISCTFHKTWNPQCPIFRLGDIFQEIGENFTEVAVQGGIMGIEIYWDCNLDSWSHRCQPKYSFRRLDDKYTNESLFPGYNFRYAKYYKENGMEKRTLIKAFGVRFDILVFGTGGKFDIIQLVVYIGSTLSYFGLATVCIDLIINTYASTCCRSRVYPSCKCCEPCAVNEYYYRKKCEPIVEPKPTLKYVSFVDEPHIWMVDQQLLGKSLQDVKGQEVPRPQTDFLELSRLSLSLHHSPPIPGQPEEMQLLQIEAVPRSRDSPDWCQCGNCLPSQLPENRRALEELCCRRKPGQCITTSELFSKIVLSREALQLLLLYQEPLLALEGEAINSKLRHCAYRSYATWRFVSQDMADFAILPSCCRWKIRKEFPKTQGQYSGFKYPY
Description: Primary cultures of oligodendrocytes derived from optic nerves of 12 day-old Sprague-Dawley rats were obtained as previously described (Matute et al., 1997 Proc Natl Acad Sci U S A 94:8830-8835.).Cells were maintained at 37°C and 5% CO2 in a chemically defined medium (Matute et al., 1997 Proc Natl Acad Sci U S A 94:8830-8835.). After 2-4 days in vitro, cultures were composed of at least 98% 04/Ga1C^+ cells. No microglial cells were detected in these cultures. […] Cell death was determined 24h later using calcein-AM (Invitrogen) as previously described (Matute et al., 1997 Proc Natl Acad Sci U S A 94:8830-8835.). […] Calcein was used to quantify the number of cells within the reading field. Fluorescence was measured as above and values were plotted as the percentage of DCFDA/calcein red-orange fluorescence versus control. The changes in mitochondrial membrane potential were monitored with 5,5',6,6'-tetrachloro-1,1',3,3'-tetraethylbenzimidazolcarbocyanine iodide (JC-1; Molecular Probes). […] The changes in the membrane potential were calculated as the red (emission at 590)/green (emission at 520) ratio in each condition and results were normalized to control.
Whole cell recordings were performed at room temperature and at a holding membrane potential of -70 mV. […] Data were analyzed with Excel and Prism software.

optic nerves = assay: Optic nerve ischaemia (OGD), tissue damage by LDH release; set-up: species or system rats
Description: (§3) After 1h OGD at 37°C, the medium was replaced with fresh solution containing glucose and equilibrated with 95% O2, 5% CO2 and the nerves were incubated for another 2h at 37°C to simulate reperfusion.

optic nerve [4] = assay: ATP release measurement (luciferin/luciferase) in isolated optic nerves after OGD; set-up: species or system rats; conditions: MFQ 1 µM, CBX 100 µM
Description: as §2, §3

[5] = tested on: optic nerve oligodendrocytes; assay: Whole-cell recording of ischaemic inward current in cultured oligodendrocytes (chemical ischaemia); assay type: cell-based, Sprague-Dawley rats
Description: After 2-4 days in vitro, cultures were composed of at least 98% 04/Ga1C^+ cells. No microglial cells were detected in these cultures. […] Cell death was determined 24h later using calcein-AM (Invitrogen) as previously described (Matute et al., 1997 Proc Natl Acad Sci U S A 94:8830-8835.). Antagonists were present during in vitro ischaemia and during the next 24h incubation period. […] Calcein was used to quantify the number of cells within the reading field. Fluorescence was measured as above and values were plotted as the percentage of DCFDA/calcein red-orange fluorescence versus control. […] Molecular Probes). […] The changes in the membrane potential were calculated as the red (emission at 590)/green (emission at 520) ratio in each condition and results were normalized to control. Whole cell recordings were performed at room temperature and at a holding membrane potential of -70 mV. Extracellular bath solution with a pH of 7.3 contained (in mM): […] Patch clamp pipettes (3-5 MΩ) were filled with internal solution at a pH of 7.3 containing (in mM): CsCI 140, CaC12 2, MgC12 2, HEPES 10, EGTA 11, Na-ATP 2. For electrophysiology monitoring, ischaemia was induced chemically by using the glycolytic blocker iodoacetate (1 mM) and the oxidative phosphorylation inhibitor antimycin (2.5 μM), and omitting glucose because recordings were performed in an open chamber where O2 can diffuse to the cells (Káradóttir et al., 2005). Recordings of ATP currents were performed in divalent cation-free extracellular solutions, obtained by omitting Ca^2+ and Mg^2+, to potentiate P2X-mediated responses (Matute et al., 1997 Proc Natl Acad Sci U S A 94:8830-8835.). […] Molecular Probes, Inc., Eugene, OR) in culture medium for 30 min at 37 °C. Experiments were carried out in a coverslip chamber continuously perfused with a buffer containing 20 mM HEPES, 2 mM CaC12, 10 mM glucose in HBSS at 1 ml/min. The perfusion chamber was mounted on the stage of a Zeiss inverted epifluorescence microscope (Axiovert 35), equipped with a 150 W xenon lamp Polychrome IV (TILL Photonics GMBH) and a Plan Neofluar 40x oil immersion objective (Zeiss, Germany). Cells were visualized with a high resolution digital B/W CCD camera (ORCA; Hamamatsu Photonics Iberica, Barcelona, Spain) and image acquisition and data analysis were carried out using the AquaCosmos software program (Hamamatsu Photonics Iberica). Images were acquired every 30 ms at 37°C and ischaemia was induced as above. […] At the end of the assay, in situ calibration was carried out with the successive addition of […] and 2M Tris/50 mM EGTA, pH 8.5. Data were analyzed with Excel and Prism software.

[6] = tested on: optic nerve oligodendrocytes; assay: Ca2+ imaging (fura-2) of oligodendrocytes during chemical ischaemia; assay type: cell-based, Sprague-Dawley rats
Description: After 2-4 days in vitro, cultures were composed of at least 98% 04/Ga1C^+ cells. No microglial cells were detected in these cultures. […] Cell death was determined 24h later using calcein-AM (Invitrogen) as previously described (Matute et al., 1997 Proc Natl Acad Sci U S A 94:8830-8835.). Antagonists were present during in vitro ischaemia and during the next 24h incubation period. […] Calcein was used to quantify the number of cells within the reading field. Fluorescence was measured as above and values were plotted as the percentage of DCFDA/calcein red-orange fluorescence versus control. […] Molecular Probes). […] The changes in the membrane potential were calculated as the red (emission at 590)/green (emission at 520) ratio in each condition and results were normalized to control. Whole cell recordings were performed at room temperature and at a holding membrane potential of -70 mV. Extracellular bath solution with a pH of 7.3 contained (in mM): […] Patch clamp pipettes (3-5 MΩ) were filled with internal solution at a pH of 7.3 containing (in mM): CsCI 140, CaC12 2, MgC12 2, HEPES 10, EGTA 11, Na-ATP 2. […] Data were analyzed with Excel and Prism software.

optic nerve [7] = tested on: optic nerve
P2X7 = molecular target: T2, P2X7 (Homo sapiens, UniProt Q99572); conditions: cited from earlier work
T2 sequence (Q99572 1-595): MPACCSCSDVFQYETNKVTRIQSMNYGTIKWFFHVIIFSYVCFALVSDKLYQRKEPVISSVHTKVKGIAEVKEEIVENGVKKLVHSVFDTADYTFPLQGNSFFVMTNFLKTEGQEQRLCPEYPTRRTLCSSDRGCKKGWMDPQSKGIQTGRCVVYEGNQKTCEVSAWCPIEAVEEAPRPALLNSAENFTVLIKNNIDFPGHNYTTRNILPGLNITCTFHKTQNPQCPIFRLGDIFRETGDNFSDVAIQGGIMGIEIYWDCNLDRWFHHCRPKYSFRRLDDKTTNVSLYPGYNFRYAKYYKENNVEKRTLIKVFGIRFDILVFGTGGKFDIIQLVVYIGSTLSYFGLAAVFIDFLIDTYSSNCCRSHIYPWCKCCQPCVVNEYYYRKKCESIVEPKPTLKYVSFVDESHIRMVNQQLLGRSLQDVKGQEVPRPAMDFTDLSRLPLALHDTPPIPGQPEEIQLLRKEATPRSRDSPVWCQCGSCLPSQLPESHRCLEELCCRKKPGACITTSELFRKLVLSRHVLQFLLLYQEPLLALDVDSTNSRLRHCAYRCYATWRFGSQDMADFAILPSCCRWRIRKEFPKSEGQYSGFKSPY

[8] = P28 rat optic nerves, 1h OGD + 2h reperfusion, PPADS 1 mM, BBG 50 nM, oATP 1 mM, apyrase 20 U/ml, MFQ 1 µM, CBX 100 µM, FFA 1 mM

SMILES	OGD-induced oligodendrocyte cell death [1]	ATP levels after OGD [2]	ATP (1 mM)-evoked inward currents [3]	ischaemia-induced damage to optic nerves (LDH release) (optic nerves; [8])	ATP levels during OGD (optic nerve [4])	ischaemic inward currents [5]	increase in [Ca2+]i caused by ischaemia [6]	OGD-induced damage at all developmental stages (optic nerves)	ischaemia-induced damage to optic nerves (LDH release) (optic nerves)	recovery of axon function (CAP area) after the ischaemic insult (optic nerve [7])	IC50 (P2X7) [µM]
CC1(C)[C@@H](OC(=O)CCC(=O)O)CC[C@]2(C)[C@H]3C(=O)C=C4[C@@H]5C[C@@](C)(C(=O)O)CC[C@]5(C)CC[C@@]4(C)[C@]3(C)CC[C@@H]12 [CBX]	inhibited	significantly reduced	not reduced	reduced; also recorded: attenuated	reduced	–	–	–	–	–	–
OC(c1cc(C(F)(F)F)nc2c(C(F)(F)F)cccc12)C1CCCCN1 [MFQ, [8-bis(trifluoromethyl)quinolin-4-yl]-[(2R)-piperidin-2-yl]methanol]	inhibited	significantly reduced	not reduced	reduced; also recorded: attenuated	reduced	–	–	–	–	–	–
Nc1ncnc2c1ncn2[C@@H](C=O)O[C@@H](C=O)COP(=O)(O)OP(=O)(O)OP(=O)(O)O [o-ATP, the sodium salt of adenosine 5-triphosphate, oxidized with periodate]	–	–	–	–	–	significantly reduced	significantly blocked; also recorded: significantly reduced	decreased; also recorded: protected	prevented; also recorded: reduced	significantly improved	5

Source: patent publication EP2322149A1, “Methods and compositions for the treatment of ischemia” (Universidad del Pais Vasco, priority 2009, dated 2011)
